According to patent publication US20200199102A1, “COMPOUNDS THAT PARTICIPATE IN COOPERATIVE BINDING AND USES THEREOF” (Revolution Medicines, Inc., priority 2017, published 2020):
Where a SMILES comes first, the peptide text is derived from it. [ ]: non-standard residue; d: D form. MeBmt = C/C=C/C[C@@H](C)[C@@H](O)[C@H](NC)C(=O)O; NMeY = CN[C@@H](Cc1ccc(O)cc1)C(=O)O; NMeF = CN[C@@H](Cc1ccccc1)C(=O)O; NMeI = CC[C@H](C)[C@H](NC)C(=O)O; NMeT = CN[C@H](C(=O)O)[C@@H](C)O; NMeL = CN[C@@H](CC(C)C)C(=O)O; dNMeV = CN[C@@H](C(=O)O)C(C)C; NMeNle = CCCC[C@H](NC)C(=O)O; Tle = CC(C)(C)[C@H](N)C(=O)O; NMeNva = CCC[C@H](NC)C(=O)O; NMeV = CN[C@H](C(=O)O)C(C)C; NMeA = CN[C@@H](C)C(=O)O; dNMeA = CN[C@H](C)C(=O)O; Abu = CC[C@H](N)C(=O)O; Sar = CNCC(=O)O

Molecular target: T1, Cyclophilin A (Homo sapiens, UniProt P62937)
T1 construct: made in house
Assay: AlphaLISA inhibition of binding of biotinylated Cyclosporin A to FLAG tagged Cyclophilin A
Details: for % signal: AlphaLISA signal; for % signal / % inhibition of CsA binding to Cyclophilin A: test concentration not given; for IC50: read-out: IC50 value of CsA binding to Cyclophilin A
Method in brief: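 Inhibition of biotin-CsA binding to FLAG-tagged Cyclophilin A read by AlphaLISA (ex 680, em 615 nm). Working stocks were 6 nM biotinylated CsA and 25 nM FLAG-CypA; beads and compound were combined first for 30 min, then protein added for 60 min, all at room temperature in the dark, with DMSO and cyclosporin A controls.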

T1 sequence (P62937 whole entry, species assumed): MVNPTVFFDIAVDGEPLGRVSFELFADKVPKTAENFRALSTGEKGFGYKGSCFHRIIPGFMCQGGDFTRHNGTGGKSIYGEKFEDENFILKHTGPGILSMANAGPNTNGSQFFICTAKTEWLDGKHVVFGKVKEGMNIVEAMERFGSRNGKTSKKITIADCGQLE

| Compound | % signal [%] | IC50 [nM] | % inhibition of CsA binding to Cyclophilin A [%] |
| --- | --- | --- | --- |
| C/C=C/C[C@@H](C)[C@@H](O)[C@H]1C(=O)N[C@@H](CC)C(=O)N(C)CC(=O)N(C)[C@@H](CCC)C(=O)N[C@@H](CC(C)C)C(=O)N(C)[C@@H](CC(C)C)C(=O)N[C@@H](CC(C)C)C(=O)N[C@H](C)C(=O)N(C)[C@@H](CC(C)C)C(=O)N(C)[C@@H](CC(C)C)C(=O)N(C)[C@@H](C(C)C)C(=O)N1C [Compound C66] (cyclo([MeBmt][Abu][Sar][NMeNva]L[NMeL]L[dA][NMeL][NMeL][NMeV])) | 10.95 | < 2000 | 89.05 |
| C/C=C/C[C@@H](C)[C@@H](O)[C@H]1C(=O)N[C@@H](CC)C(=O)N(C)CC(=O)N(C)[C@H](C(C)C)C(=O)N[C@@H](CC(C)C)C(=O)N(C)[C@@H](CC(C)C)C(=O)N[C@@H](CC(C)C)C(=O)N[C@H](C)C(=O)N(C)[C@@H](CC(C)C)C(=O)N(C)[C@@H](CC(C)C)C(=O)N(C)[C@@H](C(C)C)C(=O)N1C [Compound C67] (cyclo([MeBmt][Abu][Sar][dNMeV]L[NMeL]L[dA][NMeL][NMeL][NMeV])) | 40.86 | < 2000 | 59.14 |
| C/C=C/C[C@@H](C)[C@@H](O)[C@H]1C(=O)N[C@@H](CC)C(=O)N(C)CC(=O)N(C)[C@@H](CCCC)C(=O)N[C@@H](CC(C)C)C(=O)N(C)[C@@H](CC(C)C)C(=O)N[C@@H](CC(C)C)C(=O)N[C@H](C)C(=O)N(C)[C@@H](CC(C)C)C(=O)N(C)[C@@H](CC(C)C)C(=O)N(C)[C@@H](C(C)C)C(=O)N1C [Compound C68] (cyclo([MeBmt][Abu][Sar][NMeNle]L[NMeL]L[dA][NMeL][NMeL][NMeV])) | 20.46 | < 2000 | 79.54 |
| C/C=C/C[C@@H](C)[C@@H](O)[C@H]1C(=O)N[C@@H](CC)C(=O)N(C)CC(=O)N(C)[C@@H]([C@@H](C)CC)C(=O)N[C@@H](C(C)(C)C)C(=O)N(C)[C@@H](C)C(=O)N[C@@H](CC(C)C)C(=O)N[C@H](C)C(=O)N(C)[C@@H](CC(C)C)C(=O)N(C)[C@@H](CC(C)C)C(=O)N(C)[C@@H](C(C)C)C(=O)N1C [Compound C69] (cyclo([MeBmt][Abu][Sar][NMeI][Tle][NMeA]L[dA][NMeL][NMeL][NMeV])) | 0.03 | < 2000 | 99.97 |
| C/C=C/C[C@@H](C)[C@@H](O)[C@H]1C(=O)N[C@@H](CC)C(=O)N(C)CC(=O)N(C)[C@@H](C)C(=O)N[C@@H](C(C)(C)C)C(=O)N(C)[C@@H](C)C(=O)N[C@@H](CC(C)C)C(=O)N[C@H](C)C(=O)N(C)[C@@H](CC(C)C)C(=O)N(C)[C@@H](CC(C)C)C(=O)N(C)[C@@H](C(C)C)C(=O)N1C [Compound C70] (cyclo([MeBmt][Abu][Sar][NMeA][Tle][NMeA]L[dA][NMeL][NMeL][NMeV])) | 0.05 | < 2000 | 99.95 |
| C/C=C/C[C@@H](C)[C@@H](O)[C@H]1C(=O)N[C@@H](CC)C(=O)N(C)CC(=O)N(C)[C@H](C)C(=O)N[C@@H](C(C)(C)C)C(=O)N(C)[C@@H](C)C(=O)N[C@@H](CC(C)C)C(=O)N[C@H](C)C(=O)N(C)[C@@H](CC(C)C)C(=O)N(C)[C@@H](CC(C)C)C(=O)N(C)[C@@H](C(C)C)C(=O)N1C [Compound C71] (cyclo([MeBmt][Abu][Sar][dNMeA][Tle][NMeA]L[dA][NMeL][NMeL][NMeV])) | −0.05 | < 2000 | 100.05 |
| C/C=C/C[C@@H](C)[C@@H](O)[C@H]1C(=O)N[C@@H](CC)C(=O)N(C)CC(=O)N(C)[C@@H](Cc2ccccc2)C(=O)N[C@@H](C(C)(C)C)C(=O)N(C)[C@@H](C)C(=O)N[C@@H](CC(C)C)C(=O)N[C@H](C)C(=O)N(C)[C@@H](CC(C)C)C(=O)N(C)[C@@H](CC(C)C)C(=O)N(C)[C@@H](C(C)C)C(=O)N1C [Compound C72] (cyclo([MeBmt][Abu][Sar][NMeF][Tle][NMeA]L[dA][NMeL][NMeL][NMeV])) | 2.78 | < 2000 | 97.22 |
| C/C=C/C[C@@H](C)[C@@H](O)[C@H]1C(=O)N[C@@H](CC)C(=O)N(C)CC(=O)N(C)CC(=O)N[C@@H](C(C)(C)C)C(=O)N(C)[C@@H](C)C(=O)N[C@@H](CC(C)C)C(=O)N[C@H](C)C(=O)N(C)[C@@H](CC(C)C)C(=O)N(C)[C@@H](CC(C)C)C(=O)N(C)[C@@H](C(C)C)C(=O)N1C [Compound C73] (cyclo([MeBmt][Abu][Sar][Sar][Tle][NMeA]L[dA][NMeL][NMeL][NMeV])) | 0.01 | < 2000 | 99.99 |
| C/C=C/C[C@@H](C)[C@@H](O)[C@H]1C(=O)N[C@@H](CC)C(=O)N(C)CC(=O)N(C)[C@@H](CC(C)C)C(=O)N[C@@H](C(C)(C)C)C(=O)N(C)[C@@H](C)C(=O)N[C@@H](CC(C)C)C(=O)N[C@H](C)C(=O)N(C)[C@@H](CC(C)C)C(=O)N(C)[C@@H](CC(C)C)C(=O)N(C)[C@@H](C(C)C)C(=O)N1C [Compound C74] (cyclo([MeBmt][Abu][Sar][NMeL][Tle][NMeA]L[dA][NMeL][NMeL][NMeV])) | 4.92 | < 2000 | 95.08 |
| C/C=C/C[C@@H](C)[C@@H](O)[C@H]1C(=O)N[C@@H](CC)C(=O)N(C)CC(=O)N(C)[C@@H]([C@@H](C)O)C(=O)N[C@@H](C(C)(C)C)C(=O)N(C)[C@@H](C)C(=O)N[C@@H](CC(C)C)C(=O)N[C@H](C)C(=O)N(C)[C@@H](CC(C)C)C(=O)N(C)[C@@H](CC(C)C)C(=O)N(C)[C@@H](C(C)C)C(=O)N1C [Compound C75] (cyclo([MeBmt][Abu][Sar][NMeT][Tle][NMeA]L[dA][NMeL][NMeL][NMeV])) | 3.88 | < 2000 |  |
| C/C=C/C[C@@H](C)[C@@H](O)[C@H]1C(=O)N[C@@H](CC)C(=O)N(C)CC(=O)N(C)[C@@H](Cc2ccc(O)cc2)C(=O)N[C@@H](C(C)(C)C)C(=O)N(C)[C@@H](C)C(=O)N[C@@H](CC(C)C)C(=O)N[C@H](C)C(=O)N(C)[C@@H](CC(C)C)C(=O)N(C)[C@@H](CC(C)C)C(=O)N(C)[C@@H](C(C)C)C(=O)N1C [Compound C76] (cyclo([MeBmt][Abu][Sar][NMeY][Tle][NMeA]L[dA][NMeL][NMeL][NMeV])) | 5.09 | < 2000 | 94.91 |
| C/C=C/C[C@@H](C)[C@@H](O)[C@H]1C(=O)N[C@@H](CC)C(=O)N(C)CC(=O)N(C)[C@@H](C(C)C)C(=O)N[C@@H](C(C)(C)C)C(=O)N(C)[C@@H](C)C(=O)N[C@@H](CC(C)C)C(=O)N[C@H](C)C(=O)N(C)[C@@H](CC(C)C)C(=O)N(C)[C@@H](CC(C)C)C(=O)N(C)[C@@H](C(C)C)C(=O)N1C [Compound C77] (cyclo([MeBmt][Abu][Sar][NMeV][Tle][NMeA]L[dA][NMeL][NMeL][NMeV])) | 0.44 | < 2000 |  |
| C/C=C/C[C@@H](C)[C@@H](O)[C@H]1C(=O)N[C@@H](CC)C(=O)N(C)CC(=O)N(C)[C@@H](CCC)C(=O)N[C@@H](C(C)(C)C)C(=O)N(C)[C@@H](C)C(=O)N[C@@H](CC(C)C)C(=O)N[C@H](C)C(=O)N(C)[C@@H](CC(C)C)C(=O)N(C)[C@@H](CC(C)C)C(=O)N(C)[C@@H](C(C)C)C(=O)N1C [Compound C78] (cyclo([MeBmt][Abu][Sar][NMeNva][Tle][NMeA]L[dA][NMeL][NMeL][NMeV])) | 1.42 | < 2000 | 98.58 |
| C/C=C/C[C@@H](C)[C@@H](O)[C@H]1C(=O)N[C@@H](CC)C(=O)N(C)CC(=O)N(C)[C@H](C(C)C)C(=O)N[C@@H](C(C)(C)C)C(=O)N(C)[C@@H](C)C(=O)N[C@@H](CC(C)C)C(=O)N[C@H](C)C(=O)N(C)[C@@H](CC(C)C)C(=O)N(C)[C@@H](CC(C)C)C(=O)N(C)[C@@H](C(C)C)C(=O)N1C [Compound C79] (cyclo([MeBmt][Abu][Sar][dNMeV][Tle][NMeA]L[dA][NMeL][NMeL][NMeV])) | 3.24 | < 2000 | 96.76 |
| C/C=C/C[C@@H](C)[C@@H](O)[C@H]1C(=O)N[C@@H](CC)C(=O)N(C)CC(=O)N(C)[C@@H](CCCC)C(=O)N[C@@H](C(C)(C)C)C(=O)N(C)[C@@H](C)C(=O)N[C@@H](CC(C)C)C(=O)N[C@H](C)C(=O)N(C)[C@@H](CC(C)C)C(=O)N(C)[C@@H](CC(C)C)C(=O)N(C)[C@@H](C(C)C)C(=O)N1C [Compound C80] (cyclo([MeBmt][Abu][Sar][NMeNle][Tle][NMeA]L[dA][NMeL][NMeL][NMeV])) | 3.35 | < 2000 | 96.65 |
| C/C=C/C[C@@H](C)[C@@H](O)[C@H]1C(=O)N[C@@H](CC)C(=O)N(C)CC(=O)N(C)[C@@H]([C@@H](C)CC)C(=O)N[C@@H](C(C)C)C(=O)N(C)[C@@H](C)C(=O)N[C@@H](CC(C)C)C(=O)N[C@H](C)C(=O)N(C)[C@@H](CC(C)C)C(=O)N(C)[C@@H](CC(C)C)C(=O)N(C)[C@@H](C(C)C)C(=O)N1C [Compound C81] (cyclo([MeBmt][Abu][Sar][NMeI]V[NMeA]L[dA][NMeL][NMeL][NMeV])) | 0.76 | < 2000 | 99.24 |
